This is an account of results in ChEMBL document CHEMBL1201862, “PubChem BioAssay data set” (2004).

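A five-concentration, 48-hour dose response in 96-well plates underlies each endpoint, interpolated linearly between surrounding concentrations. The concentration for 50% growth inhibition is given as GI50.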 Calls of active or inactive are those of the source. No stated cut-off is given here; in the data, active = GI50 up to about 1.1 µM and inactive = higher.

Among the test systems are HOP-62; ACHN; SNB-19; M14; SW-620; Hs-578T; 786-0; OVCAR-3; PC-3; NCI-H23; NCI-H460; UO-31; SK-OV-3; SK-MEL-2; T47D; OVCAR-4; SK-MEL-5; A498; Malme-3M; BT-549.
What all share (assay): growth of human tumour cells (NCI), 48 h

Turning to `Cn1c(=S)c2nc(SCCCc3ccccc3)[nH]c2n(C)c1=O`, the GI50 in the assay with HOP-62 is 17.3 µM (inactive); in the assay with ACHN, 27.2 µM (inactive); in the assay on SNB-19, 16.6 µM (inactive); with M14, 17.6 µM (inactive); with SW-620, 36.4 µM (inactive); in the assay with Hs-578T, > 100 µM (inactive). Also, the GI50 in the assay on 786-0 was 25.1 µM (inactive); with OVCAR-3, 20.9 µM (inactive); in the assay on PC-3 it was 36.8 µM (inactive); in the assay on NCI-H23, 16.7 µM (inactive); in the assay on NCI-H460, 7.14 µM (inactive); with UO-31, 14.4 µM (inactive). For the same molecule, the GI50 with SK-OV-3 is 42.2 µM (inactive); in the assay with SK-MEL-2, 40.8 µM (inactive); in the assay with T47D, 14.6 µM (inactive); with OVCAR-4, 13 µM (inactive); in the assay on SK-MEL-5, 6.67 µM (inactive); with A498 it was 18.4 µM (inactive). The GI50 in the assay on Malme-3M is 62.1 µM (inactive); in the assay on BT-549, 45.1 µM (inactive).

In the case of `Cc1ccc(C2(C)CC/C(=N/N=C3/CCC(C)(c4ccc(C)c(C)c4)c4cc(C)c(C)cc43)c3cc(C)c(C)cc32)cc1C` (centres undefined), the GI50 with HOP-62, with ACHN, with SNB-19, with M14, in the assay on SW-620 and in the assay on Hs-578T was > 100 µM (inactive) each time. In addition, the GI50 in the assay with 786-0, with OVCAR-3, in the assay on PC-3, in the assay with NCI-H23, in the assay with NCI-H460 and with UO-31 was > 100 µM (inactive) throughout. In addition, the GI50 in the assay with SK-OV-3, in the assay on SK-MEL-2, in the assay with T47D, in the assay with OVCAR-4, in the assay on SK-MEL-5 and in the assay with A498 was > 100 µM (inactive) throughout. The GI50 in the assay with Malme-3M and with BT-549 was > 100 µM (inactive) each time.

For the molecule `O=c1[nH]c(NCc2cccnc2)nc2[nH]cnc12`, the GI50 in the assay with HOP-62, in the assay with ACHN, in the assay on SNB-19, in the assay on M14, with SW-620 and in the assay with Hs-578T was > 100 µM (inactive) each time. The GI50 in the assay on 786-0, in the assay with OVCAR-3, in the assay with PC-3, with NCI-H23, with NCI-H460 and in the assay with UO-31 was > 100 µM (inactive) in each case. The GI50 in the assay with SK-OV-3, in the assay with SK-MEL-2, with T47D, in the assay on OVCAR-4, with SK-MEL-5 and in the assay with A498 was > 100 µM (inactive) in each case. The GI50 in the assay on Malme-3M and in the assay with BT-549 was > 100 µM (inactive) throughout.

Regarding `Cc1cc2nc(C=C(C(F)(F)F)C(F)(F)F)sc2cc1C`, the GI50 with HOP-62 is 3.05 µM (inactive); with ACHN, 2.99 µM (inactive); in the assay with SNB-19, 3.44 µM (inactive); in the assay with M14, 0.782 µM (active); with SW-620, 0.957 µM (active); with Hs-578T it was 1.87 µM (inactive). Also, the GI50 with 786-0 is 0.316 µM (active); in the assay on OVCAR-3 it was 1.16 µM (inactive); with PC-3 it was 1.65 µM (inactive); with NCI-H23, 1.46 µM (inactive); with NCI-H460, 3.58 µM (inactive); with UO-31 it was 2.53 µM (inactive). In addition, the GI50 in the assay with SK-OV-3 was 7.62 µM (inactive); with SK-MEL-2 it was 1.73 µM (inactive); with T47D it was 0.142 µM (active); in the assay on OVCAR-4, 2.99 µM (inactive); in the assay with SK-MEL-5, 2.49 µM (inactive); in the assay with A498, 4.2 µM (inactive). The GI50 is 1.44 µM (inactive) in the assay on Malme-3M and 0.855 µM (active) in the assay with BT-549.

For the molecule `NC1=Nc2cc(C(F)(F)F)ccc2Sc2nc3ccccc3n21`, the GI50 in the assay on HOP-62 is > 60 µM (inactive); in the assay with ACHN, > 78.9 µM (inactive); in the assay with SNB-19, 15.6 µM (inactive); in the assay on M14, 3.98 µM (inactive); with SW-620 it was > 100 µM (inactive); with Hs-578T it was 42.1 µM (inactive). Also, the GI50 was 11.6 µM (inactive) in the assay on 786-0; 33.1 µM (inactive) in the assay with OVCAR-3; 10.3 µM (inactive) with PC-3; 31.3 µM (inactive) with NCI-H23; 10.1 µM (inactive) in the assay on NCI-H460; > 20.5 µM (inactive) in the assay with UO-31. For the same molecule, the GI50 in the assay with SK-OV-3 was 37.5 µM (inactive); with SK-MEL-2, 55.8 µM (inactive); in the assay with T47D, 26.6 µM (inactive); in the assay on OVCAR-4 it was 17.7 µM (inactive); in the assay with SK-MEL-5, 6.73 µM (inactive); in the assay on A498, > 45.5 µM (inactive). The results for the GI50 with Malme-3M and in the assay on BT-549 were > 86.1 µM (inactive) and > 100 µM (inactive), respectively.

In the case of `Cc1cc(NN)nc2[nH]nc(N)c12`, the GI50 with HOP-62, with ACHN, in the assay with SNB-19, in the assay with M14, in the assay with SW-620 and with Hs-578T was > 100 µM (inactive) in each case. The GI50 in the assay on 786-0, in the assay with OVCAR-3, with PC-3, in the assay with NCI-H23, in the assay on NCI-H460 and in the assay on UO-31 was > 100 µM (inactive) throughout. In addition, the GI50 with SK-OV-3, in the assay on SK-MEL-2, in the assay with T47D, in the assay on OVCAR-4, in the assay on SK-MEL-5 and with A498 was > 100 µM (inactive) in each case. Also, the GI50 with Malme-3M and with BT-549 was > 100 µM (inactive) in each case.

On to `Cc1ccccc1C(=O)N/N=C/c1ccc(Sc2nccn2C)c([N+](=O)[O-])c1`, for which the GI50 is 80.2 µM (inactive) with HOP-62; > 100 µM (inactive) in the assay on ACHN; > 100 µM (inactive) in the assay on SNB-19; > 100 µM (inactive) with M14; > 100 µM (inactive) in the assay on SW-620; 85.9 µM (inactive) in the assay on Hs-578T. The GI50 was > 100 µM (inactive) in the assay with 786-0; > 100 µM (inactive) in the assay with OVCAR-3; 67.8 µM (inactive) in the assay with PC-3; > 100 µM (inactive) in the assay on NCI-H23; 49 µM (inactive) in the assay with NCI-H460; > 100 µM (inactive) with UO-31. Besides, the GI50 with SK-OV-3 was > 100 µM (inactive); with SK-MEL-2, 68.7 µM (inactive); in the assay with T47D it was 45.3 µM (inactive); in the assay on OVCAR-4 it was 56.2 µM (inactive); in the assay with SK-MEL-5 it was 36.4 µM (inactive); in the assay with A498, > 100 µM (inactive). In addition, the GI50 in the assay with Malme-3M was 69.3 µM (inactive); in the assay on BT-549, 67.1 µM (inactive).

For the molecule `C/C=C/[P+](c1ccccc1)(c1ccccc1)c1ccccc1`, the GI50 is 3.03 µM (inactive) with HOP-62; 4.56 µM (inactive) in the assay on ACHN; 0.299 µM (active) in the assay on SNB-19; 4.92 µM (inactive) in the assay with M14; 0.48 µM (active) in the assay on SW-620; 0.337 µM (active) in the assay on Hs-578T. The GI50 is 7.33 µM (inactive) in the assay with 786-0; 0.54 µM (active) with OVCAR-3; 0.962 µM (active) in the assay on PC-3; 2.06 µM (inactive) in the assay on NCI-H23; 1.36 µM (inactive) in the assay with NCI-H460; 26.7 µM (inactive) in the assay on UO-31. The GI50 in the assay with SK-OV-3 was 1.42 µM (inactive); with SK-MEL-2, 1.82 µM (inactive); in the assay on T47D, 0.163 µM (active); with OVCAR-4 it was 2.77 µM (inactive); with SK-MEL-5 it was 0.378 µM (active); in the assay on A498, 6.58 µM (inactive). The GI50 with Malme-3M was 0.541 µM (active); with BT-549, 0.277 µM (active).

Take `O=[N+]([O-])c1cc(F)ccc1S(=O)(=O)c1ccccc1`: the GI50 in the assay with HOP-62, in the assay with ACHN, with SNB-19, in the assay on M14, in the assay with SW-620 and with Hs-578T was > 10 µM (inactive) each time. In addition, the GI50 in the assay on 786-0, with OVCAR-3, in the assay on PC-3, in the assay with NCI-H23, in the assay on NCI-H460 and with SK-OV-3 was > 10 µM (inactive) in each case. The GI50 in the assay with SK-MEL-2, in the assay on T47D, in the assay on OVCAR-4, in the assay on SK-MEL-5, with A498 and in the assay on Malme-3M was > 10 µM (inactive) throughout. For the same molecule, the GI50 in the assay on BT-549 was > 10 µM (inactive).

On to `CC(C)C(C/C=C1\CC(CO)(COC(=O)c2ccccc2)OC1=O)C(C)C` (centres undefined), for which the GI50 with HOP-62 is 13.7 µM (inactive); with ACHN, 16.7 µM (inactive); in the assay on SNB-19 it was 17.9 µM (inactive); in the assay on M14, 14.8 µM (inactive); in the assay with SW-620 it was 18 µM (inactive); with Hs-578T it was 13.1 µM (inactive). For the same molecule, the GI50 was 14.8 µM (inactive) in the assay on 786-0; 21.2 µM (inactive) in the assay on OVCAR-3; 15.8 µM (inactive) in the assay on PC-3; 20.2 µM (inactive) with NCI-H23; 15.8 µM (inactive) in the assay on NCI-H460; 17.4 µM (inactive) in the assay with UO-31. In addition, the GI50 with SK-OV-3 was 28.1 µM (inactive); in the assay on SK-MEL-2 it was > 100 µM (inactive); in the assay with T47D it was 93.8 µM (inactive); in the assay with OVCAR-4, 18.8 µM (inactive); in the assay on SK-MEL-5, 10.4 µM (inactive); in the assay with A498 it was 21.3 µM (inactive). The GI50 in the assay with Malme-3M is 16.8 µM (inactive); in the assay on BT-549 it was 21.7 µM (inactive).
